Measurements reported in patent publication US20100119483A1, “PEPTIDE VIRAL ENTRY INHIBITORS” (Schering Corporation, priority 2004, published 2010).
“And” between values parts separate entries of the source, which are not always exact repeats. Identical values can stand only once.

What was measured:
[1] = test system: amphotropic murine leukemia virus; experiment: AMLV pseudotyped virus entry counter-screen, same infection protocol; format: cell-based; details: for luciferase units, AMLV entry: duplicates
Procedure: Infection of hepatoma cell lines with HCV pseudotype particles and screen for inhibitory peptides. The hepatoma cells, Huh7, was seeded at 8000 cells in 90 ul medium in 96-well plate. In the case of the inhibitor screen, the inhibitor was incubated with cells for one hour at 37° C. and then 50 ul viral supernatant was added to the cells 24 hours after seeding. The viral stock was pre-tittered and diluted to yield approximately 10,000 to 20,000 RLU. The cells were incubated at 37° C. with 5% CO2 for additional 72 hours and were harvested for luciferase assay. Peptide stocks were prepared in 100% DMSO at 10 mg/ml and were first screened at 100 ug/ml and then a dose responsive curve was generated with 10 points 3-fold titration starting from 100 ug/ml.
The specificity of the peptides were counter-screened with AMLV and HIV pseudotyped viruses using the same infection protocol.

[2] = test system: HCV pseudoparticles; experiment: HCV pseudoparticle (HCVpp) entry assay in Huh7 hepatoma cells, luciferase readout; format: cell-based, hepatitis C virus; details: for luciferase units, HCV entry / viral entry as a percentage of the uninhibited control: duplicates; for % of control at ~30 uM: percentage of hepatitis C virus cellular entry at 30 μM peptide vs uninhibited control; for viral entry as a percentage of the uninhibited control: HCV entry
Procedure, shortened: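 Pseudoparticles carrying HCV E1/E2 on an HIV luciferase backbone were produced in 293T cells; peptide was pre-incubated 1 h at 37 °C with Huh7 cells, then virus added and luciferase read after 72 h. Dose-response used 10-point 3-fold titration from 100 ug/ml; envelope-less particles controlled non-specific entry.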

[3] = 0.01371742 uM of peptide (three lines)
[4] = 0.1 nM of peptide (printed for three rows), two values per peptide and row
[5] = 0.3 nM of peptide, two values per peptide
[6] = 1 nM of peptide, two values per peptide
[7] = 3 nM of peptide, two values per peptide
[8] = 10 nM of peptide, two values per peptide
[9] = 30 nM of peptide, two values per peptide
[10] = 100 nM of peptide, two values per peptide
[11] = 300 nM of peptide, two values per peptide
[12] = 10000 nM of peptide, two values per peptide
[13] = 0.1 nM of peptide (three lines), 0.0001 µM

Question: How did the AMLVpp % inh ([1]; peptide library screen, cell entry inhibition vs uninhibited control) turn out when “A-A-L-C-S-A-M-Y-V-G-D-L-C-G-S-V [SEQ ID NO: 14]” was run?
Answer: −42%

Question: And the HCVpp % inh ([2]; peptide library screen, first screened at 100 ug/ml, cell entry inhibition vs uninhibited control)?
Answer: 39%

Question: For “A-I-K-W-E-Y-V-L-L-F-L-L-L [SEQ ID NO: 98]”, which “luciferase units, AMLV entry” value [1, 3] is on record?
Answer: 44492 luciferase units and 44531 luciferase units and 47406 luciferase units and 49869 luciferase units and 51067 luciferase units and 61382 luciferase units

Question: And the “luciferase units, AMLV entry” value ([1]; 0.04115226 uM of peptide)?
Answer: 41463 luciferase units and 41610 luciferase units

Question: What about the “luciferase units, AMLV entry” value ([1]; 0.1234568 uM of peptide) of the same substance?
Answer: 45455 luciferase units and 45030 luciferase units

Question: What about the “luciferase units, AMLV entry” value ([1]; 0.3703704 uM of peptide) of the same substance?
Answer: 42748 luciferase units and 48710 luciferase units

Question: And the “luciferase units, AMLV entry” value ([1]; 1.111111 uM of peptide)?
Answer: 45508 luciferase units and 44147 luciferase units

Question: And the “luciferase units, AMLV entry” value ([1]; 3.333333 uM of peptide)?
Answer: 59984 luciferase units and 48300 luciferase units

Question: What about the “luciferase units, AMLV entry” value ([1]; 10 uM of peptide) of the same substance?
Answer: 111324 luciferase units and 59835 luciferase units

Question: What about the “luciferase units, AMLV entry” value ([1]; 30 uM of peptide) of the same substance?
Answer: 81103 luciferase units and 70832 luciferase units

Question: And the “% control (HCVpp entry), proline scanning” value (“% control … proline scanning” below) [2, 4]?
Answer: 85 % control and 77 % control and 86 % control and 109 % control and 95 % control

Question: And the “% control … proline scanning” value [2, 5]?
Answer: 90 % control and 68 % control

Question: And the “% control … proline scanning” value [2, 6]?
Answer: 93 % control and 94 % control

Question: What about the “% control … proline scanning” value [2, 7] of the same substance?
Answer: 86 % control and 52 % control

Question: What about the “% control … proline scanning” value [2, 8] of the same substance?
Answer: 47 % control and 50 % control

Question: And the “luciferase units, HCV entry” value [2, 3]?
Answer: 9747 luciferase units and 12623 luciferase units and 16027 luciferase units and 17299 luciferase units and 19079 luciferase units and 17575 luciferase units

Question: And the “% control … proline scanning” value [2, 9]?
Answer: 41 % control and 35 % control

Question: What about the “luciferase units, HCV entry” value ([2]; 0.04115226 uM of peptide) of the same substance?
Answer: 6486 luciferase units and 6677 luciferase units

Question: And the “% control … proline scanning” value [2, 10]?
Answer: 31 % control and 41 % control

Question: What about the “luciferase units, HCV entry” value ([2]; 0.1234568 uM of peptide) of the same substance?
Answer: 4583 luciferase units and 6873 luciferase units

Question: And the “% control … proline scanning” value [2, 11]?
Answer: 21 % control and 29 % control

Question: What about the “luciferase units, HCV entry” value ([2]; 0.3703704 uM of peptide) of the same substance?
Answer: 2830 luciferase units and 5272 luciferase units

Question: What about the “luciferase units, HCV entry” value ([2]; 1.111111 uM of peptide) of the same substance?
Answer: 3285 luciferase units and 2555 luciferase units

Question: And the “luciferase units, HCV entry” value ([2]; 3.333333 uM of peptide)?
Answer: 2647 luciferase units and 2056 luciferase units

Question: And the “luciferase units, HCV entry” value ([2]; 10 uM of peptide)?
Answer: 2186 luciferase units and 2352 luciferase units

Question: What about the “% control … proline scanning” value [2, 12] of the same substance?
Answer: 27 % control and 24 % control

Question: What about the “luciferase units, HCV entry” value ([2]; 30 uM of peptide) of the same substance?
Answer: 1938 luciferase units and 2251 luciferase units

Question: What about the “% of control at ~30 uM” value [2] of the same substance?
Answer: 10%

Question: Which results are given for “A-I-K-W-E-Y-V-L-L-L-F-L-L [SEQ ID NO: 81]”?
Answer: luciferase units, AMLV entry [1, 3]: 46029 luciferase units and 39655 luciferase units and 41740 luciferase units and 42548 luciferase units and 45150 luciferase units and 45203 luciferase units; luciferase units, AMLV entry ([1]; 0.04115226 uM of peptide): 40104 luciferase units and 51496 luciferase units; luciferase units, AMLV entry ([1]; 0.1234568 uM of peptide): 51789 luciferase units and 49401 luciferase units; luciferase units, AMLV entry ([1]; 0.3703704 uM of peptide): 48861 luciferase units and 55221 luciferase units; luciferase units, AMLV entry ([1]; 1.111111 uM of peptide): 54439 luciferase units and 53032 luciferase units; luciferase units, AMLV entry ([1]; 3.333333 uM of peptide): 62658 luciferase units and 51388 luciferase units; luciferase units, AMLV entry ([1]; 30 uM of peptide): 86600 luciferase units and 64937 luciferase units; % control (HCVpp entry), glycine scanning ([2]; 0.00003 uM of peptide, two values per peptide and row): 86 % control and 77 % control and 104 % control and 134 % control; % control (HCVpp entry), glycine scanning ([2]; 0.0001 uM of peptide, two values per peptide): 103 % control and 79 % control; % control (HCVpp entry), glycine scanning ([2]; 0.0003 uM of peptide, two values per peptide): 90 % control and 105 % control; % control (HCVpp entry), glycine scanning ([2]; 0.001 uM of peptide, two values per peptide): 94 % control and 114 % control; % control (HCVpp entry), glycine scanning ([2]; 0.003 uM of peptide, two values per peptide): 82 % control and 66 % control; % control (HCVpp entry), glycine scanning ([2]; 0.01 uM of peptide, two values per peptide): 70 % control and 71 % control; % control (HCVpp entry), glycine scanning ([2]; 0.03 uM of peptide, two values per peptide): 51 % control and 38 % control; luciferase units, HCV entry ([2]; 0.04115226 uM of peptide): 3138 luciferase units and 5487 luciferase units; luciferase units, HCV entry ([2]; 0.1234568 uM of peptide): 1665 luciferase units and 1759 luciferase units; % control (HCVpp entry), glycine scanning ([2]; 0.3 uM of peptide, two values per peptide): 39 % control and 31 % control; luciferase units, HCV entry ([2]; 0.3703704 uM of peptide): 2133 luciferase units and 2617 luciferase units; luciferase units, HCV entry ([2]; 1.111111 uM of peptide): 2065 luciferase units and 2449 luciferase units; luciferase units, HCV entry ([2]; 10 uM of peptide): 2584 luciferase units and 3853 luciferase units; % control (HCVpp entry), glycine scanning ([2]; 10 uM of peptide, two values per peptide): 22 % control and 34 % control; luciferase units, HCV entry ([2]; 30 uM of peptide): 990 luciferase units and 667 luciferase units; % control (HCVpp entry), glycine scanning ([2]; 30 uM of peptide, two values per peptide): 30 % control and 26 % control; viral entry as a percentage of the uninhibited control [2, 13]: 79% and 103% and 77% and 86% and 134% and 104%; viral entry as a percentage of the uninhibited control ([2]; 0.3 nM of peptide, 0.0003 µM): 105% and 90%; viral entry as a percentage of the uninhibited control ([2]; 1 nM of peptide, 0.001 µM): 114% and 94%; viral entry as a percentage of the uninhibited control ([2]; 3 nM of peptide, 0.003 µM): 66% and 82%; viral entry as a percentage of the uninhibited control ([2]; 10 nM of peptide, 0.01 µM): 71% and 70%; viral entry as a percentage of the uninhibited control ([2]; 30 nM of peptide, 0.03 µM): 38% and 51%; viral entry as a percentage of the uninhibited control ([2]; 300 nM of peptide, 0.3 µM): 31% and 39%; viral entry as a percentage of the uninhibited control ([2]; 10000 nM of peptide, 10 µM): 34% and 22%; viral entry as a percentage of the uninhibited control ([2]; 30000 nM of peptide, 30 µM): 26% and 30%; % of control at ~30 uM [2]: 17%

Question: Which results are given for LLFLLLVYEWKIA [retro]?
Answer: viral entry as a percentage of the uninhibited control ([2]; 0.1 nM of peptide (three lines)): 90%; viral entry as a percentage of the uninhibited control [2, 13]: 107%; viral entry as a percentage of the uninhibited control ([2]; 0.3 nM of peptide, 0.0003 µM): 88% and 98% and 86% and 95% and 91%; viral entry as a percentage of the uninhibited control ([2]; 1 nM of peptide, 0.001 µM): 94% and 86% and 97% and 81% and 51% and 88%; viral entry as a percentage of the uninhibited control ([2]; 3 nM of peptide, 0.003 µM): 62% and 99% and 121% and 76% and 77% and 66%; viral entry as a percentage of the uninhibited control ([2]; 10 nM of peptide, 0.01 µM): 52% and 95% and 93% and 81% and 68% and 77%; viral entry as a percentage of the uninhibited control ([2]; 100 nM of peptide, 0.1 µM): 72% and 101% and 79% and 99% and 65% and 62%; viral entry as a percentage of the uninhibited control ([2]; 30000 nM of peptide, 30 µM): 104% and 110% and 73% and 90% and 96% and 80%; activity compared to the wild type 13-mer peptide ([2]; HCVpp entry inhibition, in words): completely lost activity

Question: “P-I-K-W-E-Y-V-L-L-L-F-L-L [SEQ ID NO: 99]” was tested. Which “% control … proline scanning” value [2, 4] did it give?
Answer: 64 % control and 84 % control and 108 % control and 70 % control and 101 % control and 121 % control

Question: And the “% control … proline scanning” value [2, 5]?
Answer: 84 % control and 80 % control

Question: What about the “% control … proline scanning” value [2, 6] of the same substance?
Answer: 75 % control and 89 % control

Question: And the “% control … proline scanning” value [2, 7]?
Answer: 68 % control and 56 % control

Question: And the “% control … proline scanning” value [2, 8]?
Answer: 45 % control and 53 % control

Question: And the “% control … proline scanning” value [2, 9]?
Answer: 28 % control and 36 % control

Question: What about the “% control … proline scanning” value [2, 10] of the same substance?
Answer: 21 % control and 34 % control

Question: And the “% control … proline scanning” value [2, 11]?
Answer: 21 % control and 29 % control

Question: What about the “% control … proline scanning” value [2, 12] of the same substance?
Answer: 24 % control and 16 % control

Question: And the “% of control at ~30 uM” value [2]?
Answer: 21%

Question: For “S-F-A-I-K-W-E-Y-V-L-L-L-F-L-L [SEQ ID NO: 104]”, which HCVpp % inh ([2]; truncated peptides tested at 50 uM in 1% DMSO) is on record?
Answer: 91%
